ChEMBL document CHEMBL1687804, “Comparative efficacies of human simulated exposures of telavancin and vancomycin against methicillin-resistant Staphylococcus aureus with a range of vancomycin MICs in a murine pneumonia model” (Antimicrob Agents Chemother, 2010)
The source made the active and inactive calls.

Key:
Staphylococcus aureus [1] = assay: Antibacterial activity against hospital-associated methicillin-resistant Staphylococcus aureus isolate 56 (494) infected in neutropenic BALB/c mouse lung infection model assessed as reduction of CFU at 110 mg/kg, ip administered every 12 hrs measured after 24 hrs; assay type: functional, organism-based; design: dose 110 mg/kg
Homo sapiens = assay: fAUC in human at 1 gram administered every 12 hrs; assay type: ADME, organism-based; conditions: in vivo
Staphylococcus aureus [2] = assay: Antibacterial activity against hospital-associated methicillin-resistant Staphylococcus aureus isolate 152 infected in neutropenic BALB/c mouse lung infection model assessed as reduction of CFU at 110 mg/kg, ip administered every 12 hrs measured after 24 hrs; assay type: functional, organism-based; design: dose 110 mg/kg
Staphylococcus aureus [3] = assay: Antibacterial activity against community-associated methicillin-resistant Staphylococcus aureus isolate 156 infected in neutropenic BALB/c mouse lung infection model assessed as reduction of CFU at 110 mg/kg, ip administered every 12 hrs measured after 24 hrs; assay type: functional, organism-based; design: dose 110 mg/kg
Staphylococcus aureus [4] = assay: Antibacterial activity against community-associated methicillin-resistant Staphylococcus aureus isolate 145 infected in neutropenic BALB/c mouse lung infection model assessed as reduction of CFU at 110 mg/kg, ip administered every 12 hrs measured after 24 hrs; assay type: functional, organism-based; design: dose 110 mg/kg
Staphylococcus aureus [5] = assay: Antibacterial activity against hospital-associated methicillin-resistant Staphylococcus aureus isolate 336 infected in neutropenic BALB/c mouse lung infection model assessed as reduction of CFU at 110 mg/kg, ip administered every 12 hrs measured after 24 hrs; assay type: functional, organism-based; design: dose 110 mg/kg
Staphylococcus aureus [6] = assay: Antibacterial activity against hospital-associated methicillin-resistant Staphylococcus aureus isolate 360 infected in neutropenic BALB/c mouse lung infection model assessed as reduction of CFU at 110 mg/kg, ip administered every 12 hrs measured after 24 hrs; assay type: functional, organism-based; design: dose 110 mg/kg
Staphylococcus aureus [7] = assay: Antibacterial activity against hospital-associated methicillin-resistant Staphylococcus aureus isolate 412 infected in neutropenic BALB/c mouse lung infection model assessed as reduction of CFU at 110 mg/kg, ip administered every 12 hrs measured after 24 hrs; assay type: functional, organism-based; design: dose 110 mg/kg
Staphylococcus aureus [8] = assay: Antibacterial activity against vancomycin-heteroresistant Staphylococcus aureus isolate 38 (Mu3) infected in neutropenic BALB/c mouse lung infection model assessed as reduction of CFU at 110 mg/kg, ip administered every 12 hrs measured after 24 hrs; assay type: functional, organism-based; design: dose 110 mg/kg
Staphylococcus aureus [9] = assay: Antibacterial activity against vancomycin-heteroresistant Staphylococcus aureus isolate 443 infected in neutropenic BALB/c mouse lung infection model assessed as reduction of CFU at 110 mg/kg, ip administered every 12 hrs measured after 24 hrs; assay type: functional, organism-based; design: dose 110 mg/kg
Staphylococcus aureus [10] = assay: Antibacterial activity against vancomycin-intermediate Staphylococcus aureus isolate 435 infected in neutropenic BALB/c mouse lung infection model assessed as reduction of CFU at 110 mg/kg, ip administered every 12 hrs measured after 24 hrs; assay type: functional, organism-based; design: dose 110 mg/kg
Staphylococcus aureus [11] = assay: Antibacterial activity against vancomycin-intermediate Staphylococcus aureus isolate 440 (A6298) infected in neutropenic BALB/c mouse lung infection model assessed as reduction of CFU at 110 mg/kg, ip administered every 12 hrs measured after 24 hrs; assay type: functional, organism-based; design: dose 110 mg/kg
Staphylococcus aureus [12] = assay: Antibacterial activity against vancomycin-intermediate Staphylococcus aureus isolate 453 (NRS23) infected in neutropenic BALB/c mouse lung infection model assessed as reduction of CFU at 110 mg/kg, ip administered every 12 hrs measured after 24 hrs; assay type: functional, organism-based; design: dose 110 mg/kg
Staphylococcus aureus [13] = assay: Antibacterial activity against vancomycin-intermediate Staphylococcus aureus isolate 454 (NRS404) infected in neutropenic BALB/c mouse lung infection model assessed as reduction of CFU at 110 mg/kg, ip administered every 12 hrs measured after 24 hrs; assay type: functional, organism-based; design: dose 110 mg/kg
[14] = AUC (0 to 12 hrs) in BALB/c mouse at 110 mg/kg, sc; conditions: plasma
Mus musculus = assay: fAUC in BALB/c mouse at 110 mg/kg, sc administered every 12 hrs; conditions: in vivo

CN[C@H](CC(C)C)C(=O)N[C@H]1C(=O)N[C@@H](CC(N)=O)C(=O)N[C@H]2C(=O)N[C@H]3C(=O)N[C@H](C(=O)N[C@H](C(=O)O)c4cc(O)cc(O)c4-c4cc3ccc4O)[C@H](O)c3ccc(c(Cl)c3)Oc3cc2cc(c3O[C@@H]2O[C@H](CO)[C@@H](O)[C@H](O)[C@H]2O[C@H]2C[C@](C)(N)[C@H](O)[C@H](C)O2)Oc2ccc(cc2Cl)[C@H]1O [VANCOMYCIN]
active: Activity (Staphylococcus aureus [1]) | Activity (Staphylococcus aureus [2]) | Activity (Staphylococcus aureus [3]) | Activity (Staphylococcus aureus [4]) | Activity (Staphylococcus aureus [5]) | Activity (Staphylococcus aureus [6]) | Activity (Staphylococcus aureus [7]) | Activity (Staphylococcus aureus [8]) | Activity (Staphylococcus aureus [9]) | Activity (Staphylococcus aureus [10]) | Activity (Staphylococcus aureus [11]) | Activity (Staphylococcus aureus [12]) | Activity (Staphylococcus aureus [13])
208 µg·h/mL: fAUC (Homo sapiens)
196 µg·h/mL: fAUC (Mus musculus)
140 µg·h/mL: AUC(0-t) at 12 h [14]
